From article PMC8548882, “The Trp-rich Antimicrobial Amphiphiles With Intramolecular Aromatic Interactions for the Treatment of Bacterial Infection” (Frontiers in Microbiology, 2021)
Ends that are not written are not given here.

Experiments:
[1] = system: normal skin tissue; assay: Skin toxicity, TUNEL assay; settings: subcutaneous injection, 24h; VW5 5mg/kg; DMSO 100μl 100%
Procedure: The potential toxicity of peptides to normal skin tissues was further tested by TUNEL assay ([Huang et al., 2009]). […] The 100μl 100% DMSO treatment served as a positive control, which was well-known for its toxicity to induce skin necrosis. Then, the skin samples were harvested and were subjected to TUNEL assay and counterstain with 4,6-diamidino-2-phenylindole (DAPI).

[2] = system: S.typhimurium 7731; type: cell-based, Salmonella enterica serovar typhimurium C77-31
Description: (§1) The tested strains were kindly provided by the laboratory of Veterinary Microbiology and Immunology, the College of Veterinary Medicine, Northeast Agricultural University (gram-negative bacteria, Salmonella enterica serovar typhimurium C77-31, Salmonella typhimurium ATCC 14028, Escherichia coli ATCC 25922, Pseudomonas aeruginosa ATCC 27853 and gram-positive bacteria, Staphylococcus aureus ATCC 29213, Staphylococcus aureus ATCC 43300, Staphylococcus epidermidis ATCC 12228, Staphylococcus aureus ATCC 25923).

[3] = system: S.typhimurium 14028; type: cell-based, Salmonella typhimurium ATCC 14028
Description: as §1

[4] = system: E. coli 25922; type: cell-based, Escherichia coli ATCC 25922
Description: as §1

[5] = system: P.aeruginosa 27853; type: cell-based, Pseudomonas aeruginosa ATCC 27853; settings: 27853
Description: as §1
(§2) The famous microtiter dilution, National Committee for Clinical Laboratory Standards, was adopted to measure the antimicrobial ability of the engineering peptides ([Chou et al., 2016]). In brief, the 50μl with serial dilution was incubated with the same volume bacteria (1×10^5CFU/ml in midi-logarithmic phase) in a 96-well plate 18–24h at 37°C. The positive control was the bacteria treated with culture medium and the negative control was merely culture medium. The MICs (minimum inhibitory concentrations) were defined as the lowest concentration of peptides that prevented the production of visible turbidity ([Tossi et al., 2000]).

[6] = system: S.aureus 29213; type: cell-based, Staphylococcus aureus ATCC 29213; settings: 29213
Description: as §1, §2

[7] = system: S.epidermidis 12228; type: cell-based, Staphylococcus epidermidis ATCC 12228
Description: as §1

[8] = system: S.aureus 25923; type: cell-based, Staphylococcus aureus ATCC 25923; settings: 25923
Description: as §1, §2

[9] = system: MRSA 43300; type: cell-based, Staphylococcus aureus ATCC 43300; settings: microtiter dilution, 1×10^5CFU/ml, 18–24h at 37°C, visible turbidity
Description: as §1, §2

[10] = system: panel of gram-negative and gram-positive bacteria; settings: over the eight strains of Table 2
Procedure: as §2

[11] = system: human red blood cells (hRBCs); assay: Hemolytic activity; type: cell-based
Description: The hemolytic activity of peptides was reflected by the releasing amount of hemoglobin from erythrocytes lysis induced by peptides ([Dong et al., 2014a]). The informed consent was obtained from the volunteers (3 healthy 25-year-old male volunteers) before the experiment. In brief, the human red blood cells (hRBCs), donated by volunteer, were collected, washed, and resuspended in PBS at pH 7.2. The peptides were serially diluted in PBS at different concentrations in a 96-well cell cultures plate and incubated with 50μl hRBCs for 1h at 37°C. The 0.1% Trition X-100 was selected as the treatment of positive control and the negative control was the hRBCs treated with PBS. After 1h incubation, the supernatant, obtained by centrifuging the plate 1,000g for 5min, was transferred to a brand-new plate for absorbance detection at 570nm. The releasing amount of hemoglobin was converted to the percent hemolysis against to 0.1% Triton X-100 treatment. The lowest concentration caused 5% hemolysis of hRBCs and was defined as the lowest hemolytic concentration of antimicrobial peptide.

[12] = system: IPEC-J2 cells; type: cell-based, porcine; settings: IPEC-J2; ratio of IC50 to GM
Procedure: (§3) The MTT (3-[4,5 dimethylthiozol-2-yl]-2,5-diphenylterazoliumbromide) dye was selected to analyze the cytotoxicity of peptides against the murine macrophage cell RAW 264.7 (National Collection of Authenticated Cell Cultures, Shanghai, China), human embryonic kidneys (HK293T), and the porcine intestinal epithelial cells (IPEC-J2) as in our previously study ([Li et al., 2020]). In short, the cells (10^4 cells/well) were seeded into 96-well plates and were cultivated overnight. Then the peptides with different final concentration (2μM, 4μM, 8μM, 16μM, 32μM, 64μM, and 128μM) were introduced into the plate and challenged with cells for 24h. After overnight incubation, the 50μl MTT (0.5mg/ml) was added into the cell cultures for 4h. Then the plate was centrifuged to discard the supernatants and obtain the formazan crystals. The DMSO (dimethyl sulfoxide) was employed as a solvent to dissolve the formazan crystals on the bottom of the plate and the optical density was read at 492nm with a microplate reader.

[13] = system: HEK 293T cells; type: cell-based, human; settings: ratio of IC50 to GM
Procedure: as §3

[14] = system: RAW 264.7 cells; type: cell-based, murine; settings: RAW264.7; ratio of IC50 to GM
Procedure: as §3

[15] = system: P. aeruginosa 27853; type: cell-based, Pseudomonas aeruginosa ATCC 27853; settings: 27853
Procedure: The famous microtiter dilution, National Committee for Clinical Laboratory Standards, was adopted to measure the antimicrobial ability of the engineering peptides ([Chou et al., 2016]). In brief, the 50μl with serial dilution was incubated with the same volume bacteria (1×10^5CFU/ml in midi-logarithmic phase) in a 96-well plate 18–24h at 37°C. The positive control was the bacteria treated with culture medium and the negative control was merely culture medium. […] The antimicrobial performance of peptides against P. aeruginosa 27853 cells was further studied under the complicated physiological conditions ([Lyu et al., 2016]). […] The serum was also taken into the consideration for the adverse impact on the antimicrobial effect of peptides.

[16] = system: hRBC, IPEC-J2, HEK 293T, RAW264.7
Procedure: Besides, the therapeutic index of peptide in the mammalian eukaryotic cell (RAW 264.7, HEK 293T, and IPEC J2) was also calculated to study the biocompatibility of peptides.

Q: `C[S+](C)[O-]` [DMSO, dimethyl sulfoxide] was tested. Which “apoptotic cells in epidermal layer (TUNEL)” value [1] did it give?
A: heavy cell apoptosis

Q: With VKKLVKKAVKKLVKKA-NH2 [VL1] as the molecule, how does the MIC [2] read?
A: >64 µM

Q: What about the MIC [3] of the same molecule?
A: >64 µM

Q: What about the MIC [4] of the same molecule?
A: >64 µM

Q: What about the MIC [5] of the same molecule?
A: >64 µM

Q: And the MIC [6]?
A: >64 µM

Q: What about the MIC [7] of the same molecule?
A: >64 µM

Q: And the MIC [8]?
A: >64 µM

Q: What about the MIC [9] of the same molecule?
A: >64 µM

Q: And the “GMMIC, geometric mean of the MICs” value [10]?
A: 128.00 µM

Q: And the “HC5 (MHC), lowest concentration that caused 5% hemolysis” value ([11]; hRBC in PBS pH 7.2, 1h at 37°C, absorbance 570nm, vs 0.1% Triton X-100, highest test concentration 128μM)?
A: >128 µM

Q: And the “Therapeutic index (TI)” value ([11]; hRBC, ratio of MHC to GM)?
A: >1.00

Q: What about the “Therapeutic index (TI)” value [12] of the same molecule?
A: 58.65

Q: And the “Therapeutic index (TI)” value [13]?
A: 75.40

Q: What about the “Therapeutic index (TI)” value [14] of the same molecule?
A: 68.71

Q: And the MIC [15]?
A: >64 µM

Q: What about the “GMTI, geometric mean of TI of various cell lines” value [16] of the same molecule?
A: >23.48
